Results reported in patent publication US11590130B2, “Combinations of a tubulin polymerization inhibitor and a poly (ADP-ribose) polymerase (PARP) inhibitor for use in the treatment of cancer” (NOVIGA RESEARCH AB, priority 2018, dated 2023).

Columns and labels:
[1] = system: patient-derived xenograft of ovarian cancer (Ov10584); assay: Anti-tumor efficacy of NOV202 alone and in combination with olaparib in patient-derived xenograft of ovarian cancer (Example 1); assay type: in vivo; conditions: for T/C (tumor/control) value: NMRI:nu/nu mice, Ov10584 s.c., once a day for 14 days (days 8-22), combination same dosage and schedule
Source text: A Study of Anti-Tumor Efficacy of NOV202 Alone and in Combination with Olaparib in a Patient-Derived Xenograft of Ovarian Cancer (Ov10584)
NMRI:nu/nu female (Janvier) mice (8 weeks old) were used as follows: 4 animals in the vehicle group, 4 animals in NOV202 group, Olaparib group and in the combination group of NOV202 and olaparib, respectively. NOV202 was synthesized as described in WO 2012/127032. Olaparib was purchased from LC Laboratories. The patient-derived xenograft Ov10584 was used at passage number 7. All mice received tissue fragments of 2×2 mm subcutaneously at day 0, and tumors were allowed to reach palpable sizes of 118 mm^3 (mean) (the study day 8) prior to start the treatments. NOV202 group was administered PO at a dose 30 mg/kg and olaparib group was administered PO at a dose 100 mg/kg. The combination of NOV202 and olaparib group had the same dosage and schedule as in monotherapy. NOV202 was given in the morning (5 ml/kg) and olaparib in the afternoon (10 ml/kg). All three groups were administered 14 days once a day (days 8-22). The tumor volumes and body weights of animals were measured at regular intervals (day 7, 9, 13, 15, 19, 22, 27, all groups, and continued to measure the combination group day 29, 33, 36, 40, 43, 47, 50, 54, 57).

[2] = system: patient-derived xenograft Ov10584; assay: Anti-tumor efficacy of NOV202 with olaparib vs. plinabulin with olaparib in patient-derived xenograft of ovarian cancer (Example 2); assay type: in vivo; conditions: NMRI:nu/nu mice, Ov10584 s.c.; NOV202 30 mg/kg PO and olaparib 100 mg/kg PO once a day days 6-19; plinabulin 7.5 mg/kg i.p. days 1, 4, 8, 11, 15; combinations same dosage and schedule
Source text: A Study of Anti-Tumor Efficacy of Combination of NOV202 with Olaparib Vs. Combination Plinabulin with Olaparib in a Patient-Derived Xenograft of Ovarian Cancer ([…])
NMRI:nu/nu female (Janvier) mice (8 weeks old) were used as follows: 4 animals in the vehicle group, 4 animals in NOV202 group, olaparib group, plinabulin group, in the combination group of NOV202 and Olaparib, and in the combination group of plinabulin and olaparib, respectively. NOV202 was synthesized as described in WO 2012/127032. Olaparib was purchased from LC Laboratories, and plinabulin was purchased from Sellechem. The patient-derived xenograft Ov10584 was used at passage number 4. All mice received tissue fragments of 2×2 mm subcutaneously into the left flank at day 0, and tumors were allowed to reach palpable sizes of 108 mm^3 (mean) (the study day 6) prior to start the treatments. NOV202 group was administered PO at a dose 30 mg/kg and olaparib group was administered PO at a dose 100 mg/kg, and plinabulin was administered i.p. at a dose 7.5 mg/kg. The combination of NOV202 and olaparib group had the same dosage and schedule as in monotherapy, NOV202 was given in the morning (5 ml/kg) and olaparib in the afternoon (10 ml/kg). The combination of plinabulin and olaparib group had also the same dosage and schedule as in monotherapy. NOV202 and olaparib was administered 14 days once a day (days 6-19), and plinabulin was administered days 1, 4, 8, 11, 15 once a day. The tumor volumes and body weights of animals were measured at regular intervals (day 6, 7, 9, 12, 14, 16, 19, 23, 26 and 29), all groups.

human OC xenograft model = assay: In vivo efficacy study in a human OC xenograft model
Source text: Development of the tumour vasculature system is essential to tumour growth and metastatic spread of malignant cells. The rationale behind using vasculature targeting agents in anti-cancer therapy is that the cancer cells will be deprived of essential nutrients and oxygen supply for their growth and spread, thereby improving treatment outcome.

[3] = system: ovarian cancer (OC) cell line A2780; assay: Anti-proliferative activity in human cancer cell lines; assay type: cell-based; conditions: A2780 cells
Source text: (§1) Compounds of Formula I, including NOV202, exerts its action by inhibition of tubulin polymerization and thereby the assembly of microtubule structures, which cause a cell cycle arrest and cell death via apoptosis. […] The A2780/Adr multidrug resistant OC cell line overexpresses the P-glycoprotein efflux transporters which confer multidrug resistance.

[4] = system: A2780/Adr multidrug resistant OC cell line; assay: Activity in multidrug resistant OC cells; assay type: cell-based, human; conditions: A2780/Adr overexpresses P-glycoprotein efflux transporters
Source text: as §1

[5] = NOV202 30 mg/kg PO, olaparib 100 mg/kg PO

Compound | T/C (tumor/control) value [1, 5] [%] | tolerability ([1]; daily treatment for 14 days, NOV202 30 mg/kg PO, olaparib 100 mg/kg PO) | body weight loss ([1]; one day after treatment stop, 30 mg/kg NOV202 daily for 14 days, mice recovered soon) [%] | T/C (tumor/control) value [2] [%] | suppression of tumour growth (human OC xenograft model; human OC xenograft, similar to paclitaxel in this model) | tolerability (human OC xenograft model; oral gavage over a period of 20 days) | anti-proliferative activity [3] | effectiveness in multidrug resistant versus isogenic non-resistant OC cells [4]
COc1ccc2[nH]cc(CCNc3nccc(Nc4cccc5c4ccn5C)n3)c2c1 [NOV202, N^2-[2-(5-methoxy-1H-indol-3-yl)ethyl]-N^4-(1-methyl-1H-indol-4-yl)pyrimidine-2,4-diamine] | 37 | well tolerated | 6 | 32 | up to 80% | well tolerated | very potent | as effective in multidrug resistant OC cells as in the isogenic (drug sensitive variant) non-resistant OC cells
O=C(c1cc(Cc2n[nH]c(=O)c3ccccc23)ccc1F)N1CCN(C(=O)C2CC2)CC1 [olaparib, 4-(3-{[4-(cyclopropylcarbonyl)piperazin-1-yl]carbonyl}-4-fluorobenzyl)phthalazin-1(2H)-one, reference compound] | 20 | – | – | 45 | – | – | – | –
CC(C)(C)c1[nH]cnc1/C=c1\[nH]c(=O)/c(=C/c2ccccc2)[nH]c1=O [plinabulin, (3Z,6Z)-3-Benzylidene-6-{[5-(2-methyl-2-propanyl)-1H-imidazol-4-yl]methylene}-2,5-piperazinedione] | – | – | – | 58 | – | – | – | –
